According to patent publication US20200062710A1, “Method For Producing 3-(Pyridyl-2-Amino)Propionitrile And Analogues Thereof” (Nipppon Kayaku Kabushiki Kaisha, priority 2016, published 2020):

Key:
[1] = system: Rice Brown Planthopper (Nilaparvata lugens); assay: Pest control test (stem and leaf soaking treatment) to rice brown planthopper; assay type: in vivo; conditions: 800 ppm, rice seedlings soaked, 25° C., five days after treatment
Procedure: Biological Test Example 2: Pest Control Test (Stem and Leaf Soaking Treatment) to Rice Brown Planthopper (Nilaparvata lugens)
Ten rice seedlings were soaked in 20 mL of the test compound solution diluted to 800 ppm and air-dried. After air drying, the rice seedings were hold in a glass cylinder (inner diameter 4.5 cm×14 cm) with urethane and stood on the plastic cup in which 40 mL of water was put. The […] larva of rice brown planthopper was released there, covered with medicine package, and kept in a constant temperature room at 25° C. In five days after treatment, life and death were observed and the mortality was calculated.

[2] = system: Twospotted Spider Mite (Tetranychus urticae); assay: Pest control test (leaf soaking treatment) to twospotted spider mite; assay type: in vivo; conditions: 800 ppm, bean leaf with eggs soaked about 30 seconds, 25° C., seven days after treatment
Procedure: Biological Test Example 1: Pest Control Test (Leaf Soaking Treatment) to Twospotted Spider Mite (Tetranychus urticae)
A bean leaf was cut to a diameter of 3.5 cm and placed on absorbent cotton moistened with water. Five adult females of the twospotted spider mite were released on the bean leaf and laid eggs for 24 hours, and then the adults were removed. This bean leaf was soaked for about 30 seconds in 20 mL of the dilution solution of the test compound diluted to 800 ppm. After air-drying, the bean leaf was put in a plastic cup together with absorbent cotton, covered, and kept in a constant temperature room at 25° C. In seven days after treatment, life and death were observed and the ovicidal rate was calculated.

N#CCCNc1ccccn1 [compound (1′), 3-(Pyridyl-2-amino)propionitrile]
control effect (mortality) [1]: 50%

N#CCCN(C=O)c1ccccn1 [compound (4′), N-(2-cyanoethyl)-N-(2-pyridyl)formamide]
pest control effect (ovicidal rate) [2]: 100%
